Laboratory results taken from ChEMBL document CHEMBL4842365, “Exploring the dNTP -binding site of HIV-1 reverse transcriptase for inhibitor design” (Eur J Med Chem, 2021).
Active and inactive are the calls of the source. No cut-off for these calls is given here.

Legend:
Settings in all cases: time 25-30 min
[1] = target: Human immunodeficiency virus type 1 reverse transcriptase (Human immunodeficiency virus 1) (UniProt Q72547); test: Inhibition of HIV-1 reverse transcriptase using 5'-Cy5CAGGAAACAGCTATGAC/3'-GTCCTTTGTCGATACTGTTTTTTT-5' as primer/template at 10 mM preincubated for 20 min followed by dATP addition measured after 5 to 10 mins by gel electrophoresis analysis
[2] = target: Human immunodeficiency virus type 1 reverse transcriptase (Human immunodeficiency virus 1) (UniProt Q72547); test: Inhibition of HIV-1 reverse transcriptase using 5'-Cy5CAGGAAACAGCTATGAC/3'-GTCCTTTGTCGATACTGTTTTTTT-5' as primer/template at 5 mM preincubated for 20 min followed by dATP addition measured after 5 to 10 mins by gel electrophoresis analysis
[3] = target: Human immunodeficiency virus type 1 reverse transcriptase (Human immunodeficiency virus 1) (UniProt Q72547); test: Inhibition of HIV-1 reverse transcriptase using 5'-Cy5CAGGAAACAGCTATGAC/3'-GTCCTTTGTCGATACTGTTTTTTT-5' as primer/template at 1 mM preincubated for 20 min followed by dATP addition measured after 5 to 10 mins by gel electrophoresis analysis

inhibition [1]	inhibition [2]	inhibition [3]	SMILES
inactive		inactive	Nc1ncnc2c1ncn2CCN[C@@H](CP(=O)(O)O)C(=O)O
Active	Active	inactive	Nc1ncnc2c1ncn2CCOC(CP(=O)(O)O)C(=O)O (racemic)
inactive		inactive	Nc1ncnc2c1ncn2CCN[C@H](CP(=O)(O)O)C(=O)O
Active	Active	inactive	Nc1ncnc2c1ncn2CCCOC(CP(=O)(O)O)C(=O)O (centres undefined)

Second part, the compound before the results:

SMILES	inhibition [1]	inhibition [2]	inhibition [3]
Nc1ncnc2c1ncn2CCN[C@@H](CO)C(=O)NP(=O)(O)O	Active	Active	inactive
Nc1ncnc2c1ncn2CCCN[C@H](CP(=O)(O)O)C(=O)O	Active	Active	inactive
C[C@H](Cn1cnc2c(N)ncnc21)N(CCP(=O)(O)O)CC(=O)O	Active	Active	inactive
